# Active and inactive are the calls of the source. The rule behind the calls is not given here.
# Legend:
# [1] = target: T1, Vitamin D3 receptor (Homo sapiens, UniProt P11473); assay: Agonist activity at VDR (unknown origin) expressed in HEK293 cells cotransfected with NCoR assessed as decrease in NCoR recruitment by two-hybrid assay; type: cell-based
# T1 sequence (P11473 whole entry): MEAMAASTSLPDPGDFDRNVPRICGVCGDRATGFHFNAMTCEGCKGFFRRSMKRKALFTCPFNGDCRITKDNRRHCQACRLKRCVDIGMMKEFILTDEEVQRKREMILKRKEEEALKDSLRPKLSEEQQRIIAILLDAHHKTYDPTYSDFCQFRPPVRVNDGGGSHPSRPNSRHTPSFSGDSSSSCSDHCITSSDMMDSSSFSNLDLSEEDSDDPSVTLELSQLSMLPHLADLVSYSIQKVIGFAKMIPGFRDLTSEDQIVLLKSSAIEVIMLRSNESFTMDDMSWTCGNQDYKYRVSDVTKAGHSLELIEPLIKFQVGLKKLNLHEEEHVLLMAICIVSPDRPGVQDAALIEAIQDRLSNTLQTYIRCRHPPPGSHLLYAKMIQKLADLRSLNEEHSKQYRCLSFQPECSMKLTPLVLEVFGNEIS
# [2] = Drug uptake in human MG63 cells at 1 uM after 10 mins by HPLC analysis in presence of 10% FBS; type: ADME, cell-based; details: mg-63, 10 min
# [3] = target: T1, Vitamin D3 receptor; assay: Agonist activity at VDR in human HEK293 cells assessed as transcriptional activity after 16 to 24 hrs by luciferase reporter gene assay; type: cell-based
# [4] = target: T2, Vitamin D3 receptor (Homo sapiens) (UniProt P11473); assay: Displacement of [3H]-1,25(OH)2D3 from recombinant human VDR ligand binding domain relative to 1,25(OH)2D3
# T2 sequence (whole entry): T1 sequence (P11473 whole entry)
# [5] = target: T1, Vitamin D3 receptor; assay: Agonist activity at VDR (unknown origin) expressed in HEK293 cells cotransfected with SRC1 assessed as SRC1 recruitment by two-hybrid assay; type: cell-based
# [6] = Metabolic stability in human MG63 assessed as compound metabolized at 1 uM after 24 hrs by HPLC analysis; type: ADME, MG-63; details: MG63 cells, read-out: Drug metabolism
# [7] = target: T1, Vitamin D3 receptor; assay: (§1) Agonist activity at VDR (unknown origin) expressed in HEK293 cells cotransfected with RXRalpha assessed as RXRalpha recruitment by two-hybrid assay; type: cell-based
# [8] = target: T2, Vitamin D3 receptor (Homo sapiens); assay: Partial agonist activity at VDR in human HEK293 cells assessed as transcriptional activity after 16 to 24 hrs by luciferase reporter gene assay relative to 1,25(OH)2D3; type: cell-based
# [9] = Drug uptake in human MG63 cells at 1 uM after 5 mins by HPLC analysis in presence of 10% FBS; type: ADME, cell-based; details: mg-63, 5 min
# [10] = target: T1, Vitamin D3 receptor; assay: Displacement of [3H]-1,25(OH)2D3 from recombinant human VDR ligand binding domain
# [11] = target: T2, Vitamin D3 receptor (Homo sapiens); assay: as §1; type: cell-based
IC50 [1] [nM],Drug uptake [2] [%],EC50 [3] [nM],Activity [4] [%],EC50 [5] [nM],"metabolised at 24 h, 1 µM [6] [%]",EC50 [7] [nM],Efficacy [8] [%],Drug uptake [9] [%],IC50 [10] [nM],Activity [11],SMILES
0.09,7.7,1.5,7,4.5,8,0.7,86,5.9,5,–,C=C1[C@H](O)CC(=C/C=C2\CCC[C@]3(C)[C@@H](C#CC#C[C@@H](O)C45CC6CC(CC(C6)C4)C5)CC[C@@H]23)C[C@H]1O
–,–,20,1,–,–,–,–,–,35,Active,C=C1[C@H](O)CC(=C/C=C2\CCC[C@]3(C)[C@@H](C#CC#C[C@@H](O)CC45CC6CC(CC(C6)C4)C5)CC[C@@H]23)C[C@H]1O
–,2.7,–,–,–,25,–,–,2.5,–,–,C=C1/C(=C\C=C2/CCC[C@]3(C)[C@@H]([C@H](C)CCCC(C)(C)O)CC[C@@H]23)C[C@@H](O)C[C@@H]1O [CALCITRIOL]
–,–,7,3,–,–,–,41,–,12.5,–,C=C1[C@H](O)CC(=C/C=C2\CCC[C@]3(C)[C@@H](C#CC#C[C@H](O)C45CC6CC(CC(C6)C4)C5)CC[C@@H]23)C[C@H]1O
–,–,30,1,–,–,–,59,–,35,Active,C=C1[C@H](O)CC(=C/C=C2\CCC[C@]3(C)[C@@H](C#CC#C[C@H](O)CC45CC6CC(CC(C6)C4)C5)CC[C@@H]23)C[C@H]1O
